Assay results: patent publication US8962691B2, “Retinoid replacements and opsin agonists and methods for the use thereof” (University of Washington, priority 2003, dated 2015)

Legend:
[1] = tested on: rhodopsin kinase; test: Phosphorylation of regenerated rhodopsin by rhodopsin kinase; type: biochemical; conditions: in vitro
Protocol: Regenerated rhodopsin (2 mg/ml) was mixed in 100 μl of 100 mM sodium phosphate buffer, pH 7.2, containing 5 mM MgCl2, 0.5 mM [^32P]ATP (approximately 35,000 to approximately 50,000 cpm/nmol) and purified rhodopsin kinase (approximately 5 μg of protein), and the assay was carried out as described previously (Palczewski et al., J. Biol. Chem. 266:1294955 (1991)). Studies were performed in triplicate.

[2] = biological target: T1, opsin (Bos taurus, UniProt P02699); test: Photoisomerization (bleaching) of 11-cis-7-ring-retinals in solution and bound to opsin
T1 construct: Preparation of rod outer segment, opsin, rhodopsin regeneration with retinals; from tissue; host or cells: rod outer segments
T1 sequence (P02699 whole entry): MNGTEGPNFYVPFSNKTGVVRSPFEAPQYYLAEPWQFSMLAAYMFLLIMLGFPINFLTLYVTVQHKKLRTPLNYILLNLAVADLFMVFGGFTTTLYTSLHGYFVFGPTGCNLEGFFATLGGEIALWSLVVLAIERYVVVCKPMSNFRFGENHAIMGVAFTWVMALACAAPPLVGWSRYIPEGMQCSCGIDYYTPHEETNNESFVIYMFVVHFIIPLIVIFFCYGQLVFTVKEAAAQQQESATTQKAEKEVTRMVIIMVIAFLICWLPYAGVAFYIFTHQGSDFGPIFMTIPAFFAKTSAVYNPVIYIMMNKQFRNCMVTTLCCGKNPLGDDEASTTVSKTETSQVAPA
Protocol: Preparation of rod outer segment, opsin, rhodopsin regeneration with retinals, and purification of rhodopsin on a concanavalin A-Sepharose 4B column were conducted as described previously (Jang et al., J. Biol. Chem. 276:26148-53 (2001)).

[3] = biological target: T2, rhodopsin (Bos taurus, UniProt P02699); test: FTIR spectroscopy of regenerated rhodopsin; type: biochemical; conditions: for FTIR difference spectra of regenerated rhodopsin upon photoactivation: 7-ring analogs
T2 construct: Opsin membranes (24 μM) (Sachs et al., J. Biol. Chem. 275:6189-94 (2000)); from tissue; rod outer segment membranes by inference
T2 sequence (P02699 whole entry): as above
Protocol: Opsin membranes (24 μM) (Sachs et al., J. Biol. Chem. 275:6189-94 (2000)) were incubated overnight with 240 μM 11-cis-retinal or with the mixture of either 11-cis-6-ring- or 11-cis-7-ring-retinal isomers in the BTP buffer (20 mM BTP, pH 7.5, containing 1 mM MgCl2 and 130 mM NaCl). Suspensions of membranes were centrifuged for 25 minutes at 100,000×g and resuspended in the BTP buffer to yield 2.2 mM rhodopsin (from absorption at 500 nm). […] For H2O/D2O exchange, the pellet was resuspended three times in deuterated buffer. The buffer solution was removed, and the pellet transferred to a 30-mm-diameter temperature-controlled transmission cell with two BaF2 windows and a 3 μm polytetrafluoroethylen gasket. The spectra were recorded using a Bruker ifs 66-V spectrometer (Bard et al., FEBS Lett. 473:259-64 (2000)). For all samples, Meta II minus rhodopsin difference spectra were produced.

[4] = tested on: Gt; test: Kinetic light scattering (Gt activation); type: biochemical
Protocol: Light-scattering changes were measured as previously described (Heck et al., Methods Enzymol. 315:32947 (2000)). Measurements were performed in 10-mm path cuvettes with 300-μl volumes in isotonic buffer (20 mM BTP, 130 mM NaCl, and 1 mM MgCl2, pH 6.4, as indicated in the legend to FIG. 6) at 22° C. with a 5-ms dwell time of the A/D converter (Nicolet 400, Madison, Wis.). Samples contained membrane suspension (3 μM rhodopsin) reconstituted with purified Gt (0.8 μM) and 1 mM GTP. Reactions were triggered by flash photolysis of rhodopsin with a green (500±20 nm) flash attenuated by appropriate neutral density filters. The flash intensity was quantified photometrically by the amount of rhodopsin bleached and expressed in terms of the mole fraction of photoexcited rhodopsin (Rh*/Rh).

[5] = tested on: Rpe65−/− mice; test: In vivo regeneration of rhodopsin with 6- and 7-ring isomers; set-up: species or system mouse
Excerpt: All animal studies employed procedures approved by the University of Washington Animal Care Committee and conformed to recommendations of the American Veterinary Medical Association Panel on Euthanasia. All animals were maintained in complete darkness, and all manipulations were done under dim red light employing a Kodak No. 1 Safelight filter (transmittance >560 nm). Typically, 2-3-month-old mice were used in all studies. RPE65-deficient mice were obtained from M. Redmond (National Eye Institute, National Institutes of Health. Bethesda, Md.) and genotyped as described previously (Redmond et al., Nat. Genet. 20:344-51 (1998; Redmond et al. Methods Enzymol. 316:705-24 (2000)).
All procedures were performed under dim red light as described previously (Van Hooser et al., Proc. Natl. Acad. Sci. USA 97:862328 (2000); Jang. et al., J. Biol. Chem. 276:3245665 (2001); Palczewski et al., Biochemistry 38:12012-19 (1999)).

[6] = tested on: Rpe65−/− mice
Protocol: Mice were anesthetized by intraperitoneal injection with 15 μl/g body weight of 6 mg/ml ketamine and 0.44 mg/ml xylazine diluted with 10 mM phosphate buffer, pH 7.2, containing 100 mM NaCl. The pupils were dilated with 1% tropicamide. A contact lens electrode was placed on the eye with a drop of methylcellulose, and a ground electrode (a reference electrode) was placed in the ear. ERGs were recorded with the universal testing and electrophysiologic system 3000 (UTAS E-3000) (LKC Technologies, Inc.). The mice were placed in a Ganzfield chamber, and responses to flash stimuli were obtained from both eyes simultaneously. […] Two to four recordings were made with >10-second intervals. Typically, 4-8 animals were used for recording of each point in all conditions. All ERG measurements were done within 10-40 minutes after anesthesia.

Q: For “11-cis-7-ring-rhodopsin: rhodopsin regenerated with 11-cis-7-ring-retinal”, which “activity in phosphorylation assay with purified rhodopsin kinase” value [1] is on record?
A: inactive

Q: Which results are given for 11,13-di-cis-7-ring retinal [isomer 2]?
A: isomerization when bound to opsin [2]: converts readily to isomer 3 even in the dark; FTIR difference spectra of regenerated rhodopsin upon photoactivation [3]: inactive

Q: For “Meta II: catalytically active rhodopsin intermediate containing all-trans-retinal bound to Lys296 of opsin [reference compound]”, which “pKa of the light-induced active species” value [3] is on record?
A: 6.7

Q: For “9,11,13-tri-cis-7-ring retinal [isomer 1]”, which “abundance in isomer mixture after bleaching” value ([2]; bleaching 7-ring-retinoids in solution) is on record?
A: least abundant isomer

Q: What about the “FTIR difference spectra of regenerated rhodopsin upon photoactivation” value [3] of the same substance?
A: only minor changes in the difference spectra

Q: Which “FTIR difference spectra of regenerated rhodopsin upon photoactivation” value [3] does the source give for 9,11-di-cis-7-ring retinal [isomer 4] here?
A: only minor changes in the difference spectra

Q: Which results are given for 11-cis-7-ring retinal [isomer 3]?
A: isomerization when bound to opsin [2]: most stable to isomerization; activity relative to wild-type ([4]; regenerated rhodopsin): 0.10%; regeneration of opsin in vivo [5]: readily and preferentially regenerated; FTIR difference spectra of regenerated rhodopsin upon photoactivation [3]: inactive

Q: What does the source list for 11-cis-6-ring-retinal?
A: sensitivity of activity to hydroxylamine [4]: sensitive to hydroxylamine; intensity of activating light flash needed for Gt activation rates comparable to wild-type rhodopsin ([4]; membranes with regenerated rhodopsin): 1350 fold; pH dependence of Gt activation ([4]; pH 6.4 vs 7.4): enhanced at acidic pH; activity of rhodopsin regenerated in vivo ([6]; Rpe65−/− mice): active at higher bleaches; ERG activity (a- and b-wave) compared with Me2SO ([6]; mouse, in vivo): clearly elevated; isomeric products in visual pigment after injection of isomer mixture [5]: three isomers

Q: “11-cis-6-ring-rhodopsin: rhodopsin regenerated with 11-cis-6-ring-retinal (2-carbon bridge)” was tested. Which “activity relative to the 7-locked pigment” value [4] did it give?
A: markedly higher

Q: What about the “pKa of the light-induced active species” value [3] of the same substance?
A: 5.4

Q: And the “FTIR: photoproduct after bleaching” value ([3]; pH 4.5)?
A: Meta II-like product that is able to bind Gt-(340-350) derived peptide

Q: What about the “FTIR: activity after bleaching” value ([3]; pH 7.5) of the same substance?
A: only residual activity
